{"source": "paper PMC10893631", "about": "“Receptor-based pharmacophore modeling, molecular docking, synthesis and biological evaluation of novel VEGFR-2, FGFR-1, and BRAF multi-kinase inhibitors” (BMC Chemistry, 2024)", "assay_in_all_cases": "NCI SRB growth inhibition (single dose 10 µM / five-dose)", "assay_type_in_all_cases": "cell-based, human", "key": {"[1]": {"system": "SK-MEL-2", "settings": "Homo sapiens; SK-MEL-2 (Melanoma), 10 µM; read-out: GI%", "summary_of_the_method": "(§1)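 After a 24 h pre-incubation, cells received drug at five serially diluted concentrations; two untreated plates per line were TCA-fixed at drug addition as Tz. Adherent plates were fixed with cold TCA, stained with SRB and washed with 1% acetic acid.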"}, "[2]": {"system": "EKVX", "settings": "Homo sapiens; EKVX (Non-small cell lung cancer), 10 µM; read-out: GI%", "summary_of_the_method": "as §1"}, "[3]": {"system": "M14", "settings": "Homo sapiens; M14 (Melanoma), 10 µM; read-out: GI%", "summary_of_the_method": "as §1"}, "[4]": {"system": "SF-295", "settings": "Homo sapiens; SF-295 (CNS cancer), 10 µM; read-out: GI%", "summary_of_the_method": "as §1"}, "[5]": {"system": "BT-549", "settings": "Homo sapiens; BT-549 (Breast cancer), 10 µM; read-out: GI%", "summary_of_the_method": "as §1"}, "[6]": {"system": "A549/ATCC", "settings": "Homo sapiens; A549/ATCC (Non-small cell lung cancer), 10 µM; read-out: GI%", "summary_of_the_method": "as §1"}, "[7]": {"system": "786–0", "settings": "Homo sapiens; 786–0 (Renal cancer), 10 µM; read-out: GI%", "summary_of_the_method": "as §1"}, "[8]": {"system": "CAKI-1", "settings": "Homo sapiens; CAKI-1 (Renal cancer), 10 µM; read-out: GI%", "summary_of_the_method": "as §1"}, "[9]": {"system": "SK-MEL-5", "settings": "Homo sapiens; SK-MEL-5 (Melanoma), 10 µM; read-out: GI%", "summary_of_the_method": "as §1"}, "[10]": {"system": "CCRF-CEM", "settings": "Homo sapiens; CCRF-CEM (Leukemia), 10 µM; read-out: GI%", "summary_of_the_method": "as §1"}, "[11]": {"system": "OVCAR-5", "settings": "Homo sapiens; OVCAR-5 (Ovarian cancer), 10 µM; read-out: GI%", "summary_of_the_method": "as §1"}, "[12]": {"system": "UACC-257", "settings": "Homo sapiens; UACC-257 (Melanoma), 10 µM; read-out: GI%", "summary_of_the_method": "as §1"}, "[13]": {"system": "NCI-H226", "settings": "Homo sapiens; NCI-H226 (Non-small cell lung cancer), 10 µM; read-out: GI%", "summary_of_the_method": "as §1"}, "[14]": {"system": "TK-10", "settings": "Homo sapiens; TK-10 (Renal cancer), 10 µM; read-out: GI%", "summary_of_the_method": "as §1"}, "[15]": {"system": "HOP-92", "settings": "Homo sapiens; HOP-92 (Non-small cell lung cancer), 10 µM; read-out: GI%", "summary_of_the_method": "as §1"}, "[16]": {"system": "MDA-MB-231/ATCC", "settings": "Homo sapiens; MDA-MB-231/ATCC (Breast cancer), 10 µM; read-out: GI%", "summary_of_the_method": "as §1"}, "[17]": {"system": "HCC-2998", "settings": "Homo sapiens; HCC-2998 (Colon cancer), 10 µM; read-out: GI%", "summary_of_the_method": "as §1"}, "[18]": {"system": "HS 578 T", "settings": "Homo sapiens; HS 578 T (Breast cancer), 10 µM; read-out: GI%", "summary_of_the_method": "as §1"}, "[19]": {"system": "SK-MEL-28", "settings": "Homo sapiens; SK-MEL-28 (Melanoma), 10 µM; read-out: GI%", "summary_of_the_method": "as §1"}, "[20]": {"system": "MALME-3 M", "settings": "Homo sapiens; MALME-3 M (Melanoma), 10 µM; read-out: GI%", "summary_of_the_method": "as §1"}, "[21]": {"system": "NCI/ADR-RES", "settings": "Homo sapiens; NCI/ADR-RES (Ovarian cancer), 10 µM; read-out: GI%", "summary_of_the_method": "as §1"}, "[22]": {"system": "ACHN", "settings": "Homo sapiens; ACHN (Renal cancer), 10 µM; read-out: GI%", "summary_of_the_method": "as §1"}, "[23]": {"system": "SR", "settings": "Homo sapiens; SR (Leukemia), 10 µM; read-out: GI%", "summary_of_the_method": "as §1"}, "[24]": {"system": "MOLT-4", "settings": "Homo sapiens; MOLT-4 (Leukemia), 10 µM; read-out: GI%", "summary_of_the_method": "as §1"}, "[25]": {"system": "RXF 393", "settings": "Homo sapiens; RXF 393 (Renal cancer), 10 µM; read-out: GI%", "summary_of_the_method": "as §1"}, "[26]": {"system": "HT29", "settings": "Homo sapiens, HT-29; HT29 (Colon cancer), 10 µM; read-out: GI%", "summary_of_the_method": "as §1"}}, "data": [{"compound": "COc1ccc(OC)c(C=NNC(=O)c2ccc3[nH]c(-c4ccccc4)nc3c2)c1", "note": "[8f, N'-(2,5-Dimethoxybenzylidene)-2-phenyl-1H-benzo[d]imidazole-5-carbohydrazide]", "values": [{"measurement": "inhibition at 10 µM", "setting": "[1]", "value": 16.7, "unit": "%"}, {"measurement": "inhibition at 10 µM", "setting": "[2]", "value": 22.7, "unit": "%"}, {"measurement": "inhibition at 10 µM", "setting": "[3]", "value": 34.4, "unit": "%"}, {"measurement": "inhibition at 10 µM", "setting": "[4]", "value": 31.4, "unit": "%"}, {"measurement": "inhibition at 10 µM", "setting": "[5]", "value": 38.2, "unit": "%"}, {"measurement": "inhibition at 10 µM", "setting": "[6]", "value": 17.2, "unit": "%"}, {"measurement": "inhibition at 10 µM", "setting": "[7]", "value": 18.6, "unit": "%"}, {"measurement": "inhibition at 10 µM", "setting": "[8]", "value": 41.5, "unit": "%"}, {"measurement": "inhibition at 10 µM", "setting": "[9]", "value": 67.8, "unit": "%"}, {"measurement": "inhibition at 10 µM", "setting": "[10]", "value": 80.5, "unit": "%"}, {"measurement": "inhibition at 10 µM", "setting": "[11]", "value": "< 5", "unit": "%"}, {"measurement": "inhibition at 10 µM", "setting": "[12]", "value": "< 5", "unit": "%"}, {"measurement": "inhibition at 10 µM", "setting": "[13]", "value": 49.5, "unit": "%"}, {"measurement": "inhibition at 10 µM", "setting": "[14]", "value": 19, "unit": "%"}, {"measurement": "inhibition at 10 µM", "setting": "[15]", "value": 7.1, "unit": "%"}, {"measurement": "inhibition at 10 µM", "setting": "[16]", "value": 38, "unit": "%"}, {"measurement": "inhibition at 10 µM", "setting": "[17]", "value": 8.92, "unit": "%"}, {"measurement": "inhibition at 10 µM", "setting": "[18]", "value": 49.9, "unit": "%"}, {"measurement": "inhibition at 10 µM", "setting": "[19]", "value": 29.1, "unit": "%"}, {"measurement": "inhibition at 10 µM", "setting": "[20]", "value": 40.5, "unit": "%"}, {"measurement": "inhibition at 10 µM", "setting": "[21]", "value": 24.5, "unit": "%"}, {"measurement": "inhibition at 10 µM", "setting": "[22]", "value": 36.5, "unit": "%"}, {"measurement": "inhibition at 10 µM", "setting": "[23]", "value": 36.3, "unit": "%"}, {"measurement": "inhibition at 10 µM", "setting": "[24]", "value": 49.5, "unit": "%"}, {"measurement": "inhibition at 10 µM", "setting": "[25]", "value": 50, "unit": "%"}, {"measurement": "inhibition at 10 µM", "setting": "[26]", "value": 14.7, "unit": "%"}]}, {"compound": "COc1cc(C=NNC(=O)c2ccc3[nH]c(-c4ccccc4)nc3c2)cc(OC)c1OC", "note": "[8g, 2-Phenyl-N'-(3,4,5-trimethoxybenzylidene)-1H-benzo[d]imidazole-5-carbohydrazide]", "values": [{"measurement": "inhibition at 10 µM", "setting": "[1]", "value": 21.8, "unit": "%"}, {"measurement": "inhibition at 10 µM", "setting": "[2]", "value": 12.2, "unit": "%"}, {"measurement": "inhibition at 10 µM", "setting": "[3]", "value": 43.3, "unit": "%"}, {"measurement": "inhibition at 10 µM", "setting": "[4]", "value": 54.1, "unit": "%"}, {"measurement": "inhibition at 10 µM", "setting": "[5]", "value": 35.4, "unit": "%"}, {"measurement": "inhibition at 10 µM", "setting": "[6]", "value": 29.3, "unit": "%"}, {"measurement": "inhibition at 10 µM", "setting": "[7]", "value": 27.8, "unit": "%"}, {"measurement": "inhibition at 10 µM", "setting": "[8]", "value": 49.7, "unit": "%"}, {"measurement": "inhibition at 10 µM", "setting": "[9]", "value": 89.3, "unit": "%"}, {"measurement": "inhibition at 10 µM", "setting": "[10]", "value": 62, "unit": "%"}, {"measurement": "inhibition at 10 µM", "setting": "[11]", "value": "< 5", "unit": "%"}, {"measurement": "inhibition at 10 µM", "setting": "[12]", "value": 54.3, "unit": "%"}, {"measurement": "inhibition at 10 µM", "setting": "[13]", "value": 50.4, "unit": "%"}, {"measurement": "inhibition at 10 µM", "setting": "[14]", "value": 6.66, "unit": "%"}, {"measurement": "inhibition at 10 µM", "setting": "[15]", "value": "< 5", "unit": "%"}, {"measurement": "inhibition at 10 µM", "setting": "[16]", "value": 30.5, "unit": "%"}, {"measurement": "inhibition at 10 µM", "setting": "[17]", "value": 44.3, "unit": "%"}, {"measurement": "inhibition at 10 µM", "setting": "[18]", "value": 51, "unit": "%"}, {"measurement": "inhibition at 10 µM", "setting": "[19]", "value": 40.4, "unit": "%"}, {"measurement": "inhibition at 10 µM", "setting": "[20]", "value": 73.6, "unit": "%"}, {"measurement": "inhibition at 10 µM", "setting": "[21]", "value": "< 5", "unit": "%"}, {"measurement": "inhibition at 10 µM", "setting": "[22]", "value": 33.8, "unit": "%"}, {"measurement": "inhibition at 10 µM", "setting": "[23]", "value": 17.6, "unit": "%"}, {"measurement": "inhibition at 10 µM", "setting": "[24]", "value": 21.2, "unit": "%"}, {"measurement": "inhibition at 10 µM", "setting": "[25]", "value": 30.8, "unit": "%"}, {"measurement": "inhibition at 10 µM", "setting": "[26]", "value": 47.3, "unit": "%"}]}]}
